According to US12637478B2, “Compound, preparation method thereof, and antibiotic composition comprising same” (priority 2020, dated 2026):
Converted amounts (≈) assume the structure as drawn. Where two headings read alike, the source gives them in different places.

Assays:
S. epidermis = assay: MIC by broth microdilution (aerobic pathogens), test strain 5; format: cell-based; settings: Staphylococcus epidermidis
Protocol: (§1) The antibacterial activity of the compounds of Examples 1 to 48 of the present invention against aerobic pathogens were evaluated by measuring the minimum concentration of the antibiotic capable of inhibiting bacterial growth by 90% compared to the growth of the non-drug treated control group. MIC was measured by the broth microdilution method based on CLSI standards [Reference: Clinical and Laboratory Standards Institute Document. (2000) Methods for Dilution Antimicrobial Susceptibility Test for Bacteria that Grow Aerobically-Fifth Edition: M7-A5. CLSI, Villanova, PA].
(§2) All 13 strains such as methicillin susceptible Staphylococcus aureus (MSSA), methicillin resistant Staphylococcus aureus (MRSA), Vancomycin resistant Staphylococcus aureus (VRSA), Staphylococcus epidermidis, methicillin resistant Staphylococcus epidermidis, Enterococcus faecalis, Vancomycin resistant Enterococcus faecalis, Enterococcus faecium, Vancomycin resistant Enterococcus faecium were used.

E. faecium^LinR = assay: MIC by broth microdilution (aerobic pathogens), test strain 12; format: cell-based, Linezolid resistant Enterococcus faecium; settings: Enterococcus faecium; test strain 12, E. faecium^LinR (linezolid resistant); read-out: MIC
Protocol: as §1, §2

C. difficile 9689 = assay: MIC by agar dilution against Clostridioides difficile, test strain 13; format: cell-based
E. faecalis^LinR = assay: MIC by broth microdilution (aerobic pathogens), test strain 9; format: cell-based, Linezolid resistant Enterococcus faecalis; settings: Enterococcus faecalis
Protocol: as §1, §2

C. difficile 174 = assay: MIC by agar dilution against Clostridioides difficile, test strain 18; format: cell-based
C. difficile 161 = assay: MIC by agar dilution against Clostridioides difficile, test strain 16; format: cell-based; settings: test strain 16, C. difficile 161, anaerobic, agar dilution, read-out: MIC
C. difficile 181 = assay: MIC by agar dilution against Clostridioides difficile, test strain 19; format: cell-based; settings: test strain 19, C. difficile 181, anaerobic, agar dilution, read-out: MIC
E. faecium = assay: MIC by broth microdilution (aerobic pathogens), test strain 10; format: cell-based; settings: Enterococcus faecium; test strain 10, E. faecium; read-out: MIC
Protocol: as §1, §2

S. epidermis^MR = assay: MIC by broth microdilution (aerobic pathogens), test strain 6; format: cell-based, Methicillin resistant Staphylococcus epidermidis; settings: Staphylococcus epidermidis
Protocol: as §1, §2

S. aureus^MS [1] = assay: MIC by broth microdilution (aerobic pathogens), test strain 2; format: cell-based; settings: Staphylococcus aureus
Protocol: as §1, §2

E. faecium^VRE = assay: MIC by broth microdilution (aerobic pathogens), test strain 11; format: cell-based, Vancomycin resistant Enterococcus faecium; settings: Enterococcus faecium; test strain 11, E. faecium^VRE (vancomycin resistant); read-out: MIC
Protocol: as §1, §2

C. difficile 159 = assay: MIC by agar dilution against Clostridioides difficile, test strain 15; format: cell-based
E. faecalis = assay: MIC by broth microdilution (aerobic pathogens), test strain 7; format: cell-based; settings: Enterococcus faecalis; test strain 7, E. faecalis; read-out: MIC
Protocol: as §1, §2

C. difficile 152 = assay: MIC by agar dilution against Clostridioides difficile, test strain 14; format: cell-based
S. aureus^MS [2] = assay: MIC by broth microdilution (aerobic pathogens), test strain 1; format: cell-based; settings: Staphylococcus aureus
Protocol: as §1, §2

C. difficile 173 = assay: MIC by agar dilution against Clostridioides difficile, test strain 17; format: cell-based
S. aureus^VR = assay: MIC by broth microdilution (aerobic pathogens), test strain 4; format: cell-based, Vancomycin resistant Staphylococcus aureus; settings: Staphylococcus aureus; test strain 4, S. aureus^VR (vancomycin resistant); read-out: MIC
Protocol: as §1, §2

E. faecalis^VanA = assay: MIC by broth microdilution (aerobic pathogens), test strain 8; format: cell-based, Vancomycin resistant Enterococcus faecalis; settings: Enterococcus faecalis; test strain 8, E. faecalis^VanA (vancomycin resistant); read-out: MIC
Protocol: as §1, §2

S. aureus^MR = assay: MIC by broth microdilution (aerobic pathogens), test strain 3; format: cell-based, Methicillin resistant Staphylococcus aureus; settings: Staphylococcus aureus; test strain 3, S. aureus^MR (methicillin resistant); read-out: MIC
Protocol: as §1, §2

M. abscessus = assay: MIC by resazurin (REMA) assay against Mycobacterium, test strain 23; format: cell-based; settings: Mycobacteroides abscessus
Protocol: In order to test the antibacterial activity, the medium of Mycobacterium cultured to late log phase was diluted so as to be 4.0×10^5 cells/well in Middlebrook 7H10 agar medium (Difco) supplemented with 10% oleic acid, albumin, dextrose, catalase (OADC, Becton Dickinson) and 0.05% Tween 80 (Sigma Aldrich) and was dispensed into a 96-well plate. The compounds were treated so that DMSO was 1%, and after 3 days, a 0.025% resazurin (REMA) solution was dispensed, and the growth of the bacteria was confirmed after culturing. The MIC value was measured for the antibacterial activity through resazurin (excitation 530 nm, emission 590 nm).

[3] = test strain 5, S. epidermis, read-out: MIC
[4] = test strain 13, C. difficile 9689, anaerobic, agar dilution, read-out: MIC
[5] = test strain 9, E. faecalis^LinR (linezolid resistant), read-out: MIC
[6] = test strain 18, C. difficile 174, anaerobic, agar dilution, read-out: MIC
[7] = test strain 6, S. epidermis^MR (methicillin resistant), read-out: MIC
[8] = test strain 2, S. aureus^MS, read-out: MIC
[9] = test strain 15, C. difficile 159, anaerobic, agar dilution, read-out: MIC
[10] = test strain 14, C. difficile 152, anaerobic, agar dilution, read-out: MIC
[11] = test strain 1, S. aureus^MS, read-out: MIC
[12] = test strain 17, C. difficile 173, anaerobic, agar dilution, read-out: MIC

SMILES	MIC (S. epidermis; [3]) [µg/mL]	MIC (E. faecium^LinR) [µg/mL]	MIC (C. difficile 9689; [4]) [µg/mL]	MIC (E. faecalis^LinR; [5]) [µg/mL]	MIC (C. difficile 174; [6]) [µg/mL]	MIC (C. difficile 161) [µg/mL]	MIC (C. difficile 181) [µg/mL]	MIC (E. faecium) [µg/mL]	MIC (S. epidermis^MR; [7]) [µg/mL]	MIC (S. aureus^MS [1]; [8]) [µg/mL]	MIC (E. faecium^VRE) [µg/mL]	MIC (C. difficile 159; [9]) [µg/mL]	MIC (E. faecalis) [µg/mL]	MIC (C. difficile 152; [10]) [µg/mL]	MIC (S. aureus^MS [2]; [11]) [µg/mL]	MIC (C. difficile 173; [12]) [µg/mL]	MIC (S. aureus^VR) [µg/mL]	MIC (E. faecalis^VanA) [µg/mL]	MIC (S. aureus^MR) [µg/mL]	also measured
C/C=C1\NC(=O)[C@H]([C@@H](C)O)NC(=O)c2csc(n2)-c2ccc(-c3nc(-c4nc(C(=O)NC5(C(=O)NCCCCB(O)O)CC5)cs4)cs3)nc2-c2csc(n2)[C@H]([C@@H](C)O)NC(=O)c2csc(n2)[C@H](C(C)C)NC(=O)c2csc1n2 [Compound 20]	0.5 (≈ 0.421 µM)	1 (≈ 0.843 µM)	0.25 (≈ 0.211 µM)	0.25 (≈ 0.211 µM)	0.25 (≈ 0.211 µM)	1 (≈ 0.843 µM)	1 (≈ 0.843 µM)	0.5 (≈ 0.421 µM)	0.5 (≈ 0.421 µM)	0.125 (≈ 0.105 µM)	1 (≈ 0.843 µM)	0.5 (≈ 0.421 µM)	0.5 (≈ 0.421 µM)	0.25 (≈ 0.211 µM)	0.25 (≈ 0.211 µM)	0.5 (≈ 0.421 µM)				
C/C=C1\NC(=O)[C@H]([C@@H](C)O)NC(=O)c2csc(n2)-c2ccc(-c3nc(-c4nc(C(=O)NC5(C(=O)NN6CC(=O)NC6=O)CC5)cs4)cs3)nc2-c2csc(n2)[C@H]([C@@H](C)O)NC(=O)c2csc(n2)[C@H](C(C)C)NC(=O)c2csc1n2 [Compound 23]																				MIC (S. epidermis): 1 µg/mL (≈ 0.844 µM); MIC (M. abscessus): 0.226 µg/mL (≈ 0.191 µM); MIC (C. difficile 9689; 9689): 0.25 µg/mL (≈ 0.211 µM); MIC (E. faecalis^LinR): 1 µg/mL (≈ 0.844 µM); MIC (C. difficile 174; 174): 0.125 µg/mL (≈ 0.106 µM); MIC (S. epidermis^MR): 1 µg/mL (≈ 0.844 µM); MIC (S. aureus^MS [1]): 0.5 µg/mL (≈ 0.422 µM); MIC (C. difficile 159; 159): 0.5 µg/mL (≈ 0.422 µM); MIC (C. difficile 152; 152): 0.25 µg/mL (≈ 0.211 µM); MIC (S. aureus^MS [2]): 0.5 µg/mL (≈ 0.422 µM); MIC (C. difficile 173; 173): 1 µg/mL (≈ 0.844 µM)
C/C=C1\NC(=O)[C@H]([C@@H](C)O)NC(=O)c2csc(n2)-c2ccc(-c3nc(-c4nc(C(=O)NC5(C(=O)NCCn6cnc([N+](=O)[O-])n6)CC5)cs4)cs3)nc2-c2csc(n2)[C@H]([C@@H](C)O)NC(=O)c2csc(n2)[C@H](C(C)C)NC(=O)c2csc1n2 [Compound 38]	1 (≈ 0.815 µM)	1 (≈ 0.815 µM)						0.5 (≈ 0.408 µM)	1 (≈ 0.815 µM)	1 (≈ 0.815 µM)	1 (≈ 0.815 µM)				1 (≈ 0.815 µM)		1 (≈ 0.815 µM)	1 (≈ 0.815 µM)		

More lines, main results first:

MIC (S. epidermis; [3]) [µg/mL]	MIC (E. faecium^LinR) [µg/mL]	MIC (C. difficile 9689; [4]) [µg/mL]	MIC (E. faecalis^LinR; [5]) [µg/mL]	MIC (C. difficile 174; [6]) [µg/mL]	MIC (C. difficile 161) [µg/mL]	MIC (C. difficile 181) [µg/mL]	MIC (E. faecium) [µg/mL]	MIC (S. epidermis^MR; [7]) [µg/mL]	MIC (S. aureus^MS [1]; [8]) [µg/mL]	MIC (E. faecium^VRE) [µg/mL]	MIC (C. difficile 159; [9]) [µg/mL]	MIC (E. faecalis) [µg/mL]	MIC (C. difficile 152; [10]) [µg/mL]	MIC (S. aureus^MS [2]; [11]) [µg/mL]	MIC (C. difficile 173; [12]) [µg/mL]	MIC (S. aureus^VR) [µg/mL]	MIC (E. faecalis^VanA) [µg/mL]	MIC (S. aureus^MR) [µg/mL]	SMILES	also measured
0.5 (≈ 0.403 µM)	1 (≈ 0.806 µM)		1 (≈ 0.806 µM)				0.5 (≈ 0.403 µM)	0.5 (≈ 0.403 µM)	0.5 (≈ 0.403 µM)	1 (≈ 0.806 µM)		0.5 (≈ 0.403 µM)		0.5 (≈ 0.403 µM)		1 (≈ 0.806 µM)	0.5 (≈ 0.403 µM)	1 (≈ 0.806 µM)	C/C=C(\NC(=O)c1csc(-c2csc(-c3ccc4c(n3)-c3csc(n3)[C@H]([C@@H](C)O)NC(=O)c3csc(n3)[C@H](C(C)C)NC(=O)c3csc(n3)/C(=C/C)NC(=O)[C@H]([C@@H](C)O)NC(=O)c3csc-4n3)n2)n1)C(=O)NCCN1CCN(C(C)C)CC1 [Compound 47]	
0.0625 (≈ 0.0533 µM)	0.5 (≈ 0.427 µM)	0.5 (≈ 0.427 µM)	0.125 (≈ 0.107 µM)	0.06 (≈ 0.0512 µM)	0.125 (≈ 0.107 µM)	0.25 (≈ 0.213 µM)	0.25 (≈ 0.213 µM)	0.125 (≈ 0.107 µM)	0.0625 (≈ 0.0533 µM)		0.25 (≈ 0.213 µM)	0.25 (≈ 0.213 µM)	0.06 (≈ 0.0512 µM)	0.125 (≈ 0.107 µM)	0.06 (≈ 0.0512 µM)	0.5 (≈ 0.427 µM)	0.25 (≈ 0.213 µM)	0.5 (≈ 0.427 µM)	C/C=C1\NC(=O)[C@H]([C@@H](C)O)NC(=O)c2csc(n2)-c2ccc(-c3nc(-c4nc(C(=O)NC5(C(=O)NCCCB(O)O)CC5)cs4)cs3)nc2-c2csc(n2)[C@H]([C@@H](C)O)NC(=O)c2csc(n2)[C@H](C(C)C)NC(=O)c2csc1n2 [Compound 10]	
0.25 (≈ 0.206 µM)	0.5 (≈ 0.412 µM)		0.25 (≈ 0.206 µM)				0.25 (≈ 0.206 µM)	0.25 (≈ 0.206 µM)	0.5 (≈ 0.412 µM)	0.5 (≈ 0.412 µM)		0.5 (≈ 0.412 µM)		0.5 (≈ 0.412 µM)		0.5 (≈ 0.412 µM)	0.5 (≈ 0.412 µM)	1 (≈ 0.825 µM)	C/C=C(\NC(=O)c1csc(-c2csc(-c3ccc4c(n3)-c3csc(n3)[C@H]([C@@H](C)O)NC(=O)c3csc(n3)[C@H](C(C)C)NC(=O)c3csc(n3)/C(=C/C)NC(=O)[C@H]([C@@H](C)O)NC(=O)c3csc-4n3)n2)n1)C(=O)NCCN1CCN(C)CC1 [Compound 46]	
